Laboratory results as given in patent US20260102407A1, “TREATMENT METHODS” (priority 2020, published 2026).
In brackets after ≈: the same amount, converted by molar mass. Entries after “also recorded” stand apart in the source; their conditions may differ.

Key:
HMEC-1 = test: Endothelial network formation assay on Matrigel; assay type: cell-based, human
Method: Endothelial network formation assay. HMEC-1 (4×10^4 cells/well) in MCDB131 containing 1% FBS and compound (1 or 3 μM) or curcumin (1-40 μM) and 50 ng/ml FGF-2 were added to 96-well plates coated overnight at 4° C. with 100 μl of growth factor-reduced reconstituted basement membrane matrix (Matrigel, cat. 354230, Corning, NY). Network formation was observed over subsequent hours and photographed under 4× or 10× objective using an Olympus CKX41 microscope.

ERK phosphorylation = test: Western blot, IL-1β-inducible ERK phosphorylation in HMEC-1; assay type: cell-based, human; conditions: 20 ng/ml IL-1β 15 min
Method: Western blot analysis with extracts of cells treated with […]. HMEC-1 (80-90% confluency) were arrested in serum-free MCDB131 medium (Invitrogen, MD) without any growth factor for 48 h. Cells were treated with 30 μM compound in serum-free medium for 4 h, and incubated with 20 ng/ml IL-1β (Sigma, cat. SRE3083) in serum-free medium with the same concentration of compound for up to 4 h, unless otherwise indicated. Total protein was harvested as previously described using RIPA buffer with protease inhibitors. Proteins were resolved on 4-20% (w/v) SDS-polyacrylamide gradient gels and transferred to Immobilon-P PVDF membranes. Membranes were blocked with 5% skim milk and incubated with rabbit monoclonal FosB (cat. 2251S, 1:1000, Cell Signaling, USA), rabbit monoclonal VCAM-1 (cat. 13662S, 1:1000, Cell Signaling, USA), rabbit monoclonal p44/42 MAPK (cat. 4695S, 1:1000, Cell Signaling, USA), rabbit polyclonal p38 MAPK (cat. 9212S, 1:1000, Cell Signaling, USA), rabbit polyclonal SAPK/JNK (cat. 9252S, 1:1000, Cell Signaling, USA), rabbit monoclonal phospho-SAPK/JNK (cat. 4671S, 1:1000, Cell Signaling, USA), rabbit monoclonal phospho-p38 MAPK (cat. 4511S, 1:1000, Cell Signaling, USA), or, mouse monoclonal phospho-p44/42 MAPK antibodies (cat. 9106S, 1:2000, Cell Signaling, USA) at 4° C. overnight or mouse monoclonal β-actin antibodies (cat. A5316, 1:10000, Sigma-Aldrich) antibodies at 22° C. for 1 h. Membranes were then incubated with horseradish peroxidase conjugated secondary goat anti-rabbit (cat. P0448, 1:1000, DAKO Cytomation, Denmark) or goat anti-mouse (cat. P0447, 1:1000, DAKO Cytomation, Denmark) antibodies for 1 h. Chemiluminescence was detected using the Western Lightning Chemiluminescence system and ImageQuant™ LAS 4000 biomolecular imager. Band intensity in images generated with the LAS 4000 using the same settings were quantified by NIH ImageJ.

[1] = molecular target: T1, Recombinant human His-MEK1 (Homo sapiens, UniProt Q02750); test: SPR (Biacore T200) on immobilised His-MEK1; assay type: binding; conditions: 15° C.; 20 mM HEPES, 150 mM NaCl, 5% DMSO pH 7.4
T1 construct: purchased ThermoFisher Scientific PV3303
Method: (§1) SPR. SPR was performed on a Biacore T200. The active and reference flow cells of a Xantec NIHMC Ni sensor chip were conditioned with 0.5M NaEDTA followed by 5 mM NiCl2 in immobilisation buffer (20 mM HEPES, 150 mM NaCl, pH 7.4). Recombinant human His-MEK1 and His-MEK2 (500 nM, ThermoFisher Scientific, cat. PV3303 and PV3615, respectively) were injected for 15 min at 10 μl min^−1 over separate active flow cells. All immobilisation was carried out at 25° C. Following immobilisation, the temperature was lowered to 15° C., and the buffer changed to 20 mM HEPES, 150 mM NaCl, 5% DMSO pH 7.4. Samples of PD98059 (2.5-30 μM in running buffer) and BT2 (1.25-15 μM) were injected at a flow rate of 30 μl min^−1 over immobilised MEK1 and MEK2. Solvent correction was applied to the data using a DMSO standard curve. Data were analysed using the Biacore T200 Evaluation software. Prior to SPR, limits of compound solubility were determined using ^1H 1D NMR.

[2] = molecular target: T2, Recombinant human His-MEK2 (Homo sapiens, UniProt P36507); test: SPR (Biacore T200) on immobilised His-MEK2; assay type: binding; conditions: 15° C.; 20 mM HEPES, 150 mM NaCl, 5% DMSO pH 7.4
T2 construct: purchased ThermoFisher Scientific PV3615
Method: as §1

[3] = Limit of compound solubility by 1H 1D NMR; assay type: physicochemical; conditions: 1H 1D NMR spectroscopy
Method: as §1

T1 sequence (Q02750 whole entry): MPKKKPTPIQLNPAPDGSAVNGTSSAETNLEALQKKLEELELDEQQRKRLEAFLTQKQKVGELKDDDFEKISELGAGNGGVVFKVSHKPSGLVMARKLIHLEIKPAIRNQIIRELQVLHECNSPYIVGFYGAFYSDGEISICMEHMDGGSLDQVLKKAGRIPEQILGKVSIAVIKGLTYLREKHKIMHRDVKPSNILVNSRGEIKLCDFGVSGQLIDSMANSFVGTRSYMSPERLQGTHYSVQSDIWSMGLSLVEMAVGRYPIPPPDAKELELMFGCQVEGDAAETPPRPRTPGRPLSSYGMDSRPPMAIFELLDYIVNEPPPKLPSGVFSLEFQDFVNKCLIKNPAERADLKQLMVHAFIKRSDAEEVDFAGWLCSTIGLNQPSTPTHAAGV
T2 sequence (P36507 whole entry): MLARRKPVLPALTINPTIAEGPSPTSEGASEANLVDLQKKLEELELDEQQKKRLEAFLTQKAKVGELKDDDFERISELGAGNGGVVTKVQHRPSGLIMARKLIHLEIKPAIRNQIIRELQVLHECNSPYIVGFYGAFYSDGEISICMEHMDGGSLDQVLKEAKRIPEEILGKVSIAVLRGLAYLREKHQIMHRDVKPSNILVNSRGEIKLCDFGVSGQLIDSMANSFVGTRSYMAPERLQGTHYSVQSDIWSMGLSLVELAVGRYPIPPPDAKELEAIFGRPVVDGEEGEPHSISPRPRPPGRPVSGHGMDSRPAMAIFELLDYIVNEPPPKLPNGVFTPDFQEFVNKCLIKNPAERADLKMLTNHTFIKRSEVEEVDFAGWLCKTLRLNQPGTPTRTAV

binding to His-MEK1 (SPR) [1]: some interaction with MEK1 | binding to His-MEK2 (SPR) [2]: but not MEK2 | solubility [3]: 8 ± 2 µM (≈ 2.84 µg/mL)
Compound: CCN1C(=O)c2cc(NC(=O)OCC(C)C)ccc2Oc2ccccc21 [BT2-IC, isobutyl (10-ethyl-11-oxo-10,11-dihydrodibenzo[b,f][1,4]oxazepin-2-yl)carbamate]
inhibition of network formation on Matrigel (FIG. 5B) (HMEC-1; 1 μM): not at 1 μM | inhibition of network formation on Matrigel (FIG. 13B) (HMEC-1; 3 μM): some inhibition of network formation at higher concentrations; also recorded: inhibited both ERK phosphorylation (FIG. 13A) and network formation (FIG. 13B) at 3 μM (albeit less potently than BT2) | IL-1β-inducible ERK phosphorylation (FIG. 5D) (ERK phosphorylation; 1 μM): not at 1 μM | IL-1β-inducible ERK phosphorylation (FIG. 13A) (ERK phosphorylation; 3 μM): inhibited both ERK phosphorylation (FIG. 13A) and network formation (FIG. 13B) at 3 μM (albeit less potently than BT2)
